US4521538A (Medosan Industrie Biochimiche Riunite S.p.A., priority 1982, dated 1985)
Counter-ions that a name gives are not always drawn. Like-named read-outs stand apart in the source and are kept apart here.

How the values were obtained:
[1] = Mucolytic activity in vitro, consistency of human expectoration; conditions: 12 experiments
Protocol: The experiment was carried out "in vitro" according to the method of R. S. Hirsch (Bull. […] Table IV lists the percentage decrease of the expectoration consistency provoked by the compound of this invention in comparison with dithiothreitol and acetylcysteine which are known mucolytic agents.

[2] = Antiinflammatory activity, carrageenin-induced oedema test; assay type: in vivo, rats
Protocol: This effect was evaluated by means of an experimental model reproducing acute inflammation in rats: for this purpose the carrageenin-induced oedema test was employed following the method described by C. A. Winter (J. Pharmac. Exp. […] Wong, J. F. Gardocki and T. P. Pruss, J. Pharmac. Exp. Ther. 185 (1): 127, 1973). Table I lists the tested compounds, the concentration thereof, routes of administration and relative percentage oedema inhibitions; the data are commented upon at the end of the Tables.

[3] = Analgesic activity, phenylquinone-induced writhing test; assay type: in vivo
Protocol: The inhibiting effect on the abdominal contractions induced by phenyl-p-quinone was calculated by the following formula: [formula]
Table II lists the doses, routes of administration and their efficacy expressed as percentage of protection.

[4] = assay type: in vivo, male Wistar rats; conditions: for mean severity: scale 0 (no lesion) to 5 (perforations)
Protocol: Male Wistar rats weighing 180 g were randomized into groups of 10. Three doses of each compound were administered. One group received the vehicle alone (10 ml/kg b.w.). Each dose was given orally for four days consecutively and the rats were sacrificed on the fifth day for necropsy. The ulcerogenic effect was evaluated by the following scale:
(1) each haemorrhagic point at least 1 mm in diameter was scored as 1 lesion,
(2) haemorrhagic points less than 1 mm in diameter were scored in the following manner:
(c) 20 to 29=three lesions
(2) gastric mucosal irritation without haemorrhage: 1
(3) haemorrhagic points less than 1 mm in diameter: 2
(4) haemorrhagic points between 1 and 3 mm in diameter: 3
(5) haemorrhagic points larger than 3 mm in diameter: 4
By means of this scale it was possible to obtain the gastric damage index: [formula]

[5] = Antitussive activity (method of Y. Kase); assay type: in vivo, albino male Guinea-pigs
Protocol: The antitussive effect on albino male Guinea-pigs weighing 300 g was evaluated using the method described by Y. Kase (Selected Pharmacological Testing Methods, p. 363, Marcel Dekker Inc., New York, 1968).

Question: Which “% decrease of expectoration consistency” value ([1]; 0.1 M (1.5%)) does the source give for `O[C@H](CS)[C@H](O)CS` (racemic) [Dithiothreitol] here?
Answer: The value was 90%.

Question: For `COc1ccc2c(c1)c(CC(=O)O)c(C)n2C(=O)c1ccc(Cl)cc1` [Indomethacin], which Oedema % inhibition ([2]; 2.5 mg/kg i.p., 2 h) is on record?
Answer: The Oedema % inhibition was 21.0%.

Question: What about the Oedema % inhibition ([2]; 2.5 mg/kg i.p., 4 h) of the same compound?
Answer: Its Oedema % inhibition is 20.0%.

Question: And the Oedema % inhibition ([2]; 2.5 mg/kg i.p., 6 h)?
Answer: Its Oedema % inhibition is 17.0%.

Question: And the Oedema % inhibition ([2]; 2.5 mg/kg i.p., 24 h)?
Answer: Its Oedema % inhibition is 2.5%.

Question: And the Oedema % inhibition ([2]; 2.5 mg/kg per os, 2 h)?
Answer: Its Oedema % inhibition is 18.6%.

Question: What about the Oedema % inhibition ([2]; 2.5 mg/kg per os, 4 h) of the same compound?
Answer: The Oedema % inhibition was 20.7%.

Question: And the Oedema % inhibition ([2]; 2.5 mg/kg per os, 6 h)?
Answer: The Oedema % inhibition was 19.2%.

Question: What about the Oedema % inhibition ([2]; 2.5 mg/kg per os, 24 h) of the same compound?
Answer: The Oedema % inhibition was 2.6%.

Question: And the Oedema % inhibition ([2]; 5 mg/kg i.p., 2 h)?
Answer: The Oedema % inhibition was 30.0%.

Question: And the Oedema % inhibition ([2]; 5 mg/kg i.p., 4 h)?
Answer: The Oedema % inhibition was 29.0%.

Question: What about the Oedema % inhibition ([2]; 5 mg/kg i.p., 6 h) of the same compound?
Answer: Its Oedema % inhibition is 23.0%.

Question: What about the Oedema % inhibition ([2]; 5 mg/kg i.p., 24 h) of the same compound?
Answer: The Oedema % inhibition was 3.4%.

Question: And the Oedema % inhibition ([2]; 5 mg/kg per os, 2 h)?
Answer: Its Oedema % inhibition is 26.3%.

Question: What about the Oedema % inhibition ([2]; 5 mg/kg per os, 4 h) of the same compound?
Answer: The Oedema % inhibition was 29.1%.

Question: What about the Oedema % inhibition ([2]; 5 mg/kg per os, 6 h) of the same compound?
Answer: The Oedema % inhibition was 28.5%.

Question: What about the Oedema % inhibition ([2]; 5 mg/kg per os, 24 h) of the same compound?
Answer: Its Oedema % inhibition is 2.7%.

Question: And the Oedema % inhibition ([2]; 10 mg/kg i.p., 2 h)?
Answer: Its Oedema % inhibition is 49.7%.

Question: What about the Oedema % inhibition ([2]; 10 mg/kg i.p., 4 h) of the same compound?
Answer: Its Oedema % inhibition is 46.0%.

Question: And the Oedema % inhibition ([2]; 10 mg/kg i.p., 6 h)?
Answer: Its Oedema % inhibition is 48.1%.

Question: What about the Oedema % inhibition ([2]; 10 mg/kg i.p., 24 h) of the same compound?
Answer: Its Oedema % inhibition is 8.0%.

Question: And the Oedema % inhibition ([2]; 10 mg/kg per os, 2 h)?
Answer: Its Oedema % inhibition is 48.2%.

Question: What about the Oedema % inhibition ([2]; 10 mg/kg per os, 4 h) of the same compound?
Answer: Its Oedema % inhibition is 49.0%.

Question: What about the Oedema % inhibition ([2]; 10 mg/kg per os, 6 h) of the same compound?
Answer: Its Oedema % inhibition is 46.0%.

Question: What about the Oedema % inhibition ([2]; 10 mg/kg per os, 24 h) of the same compound?
Answer: The Oedema % inhibition was 7.9%.

Question: With `Cc1ccc(C(=O)c2ccc(CC(=O)O)n2C)cc1` [Tolmetin Na.2H2 O, 1-mehtyl-5-p-toluoyl-2-acetic acid sodium salt dihydrate] as the compound, how does the “% protection” value ([3]; 5 mg/kg i.p.) read?
Answer: The value was 16.5%.

Question: And the “% protection” value ([3]; 5 mg/kg per os)?
Answer: Its value is 15.0%.

Question: What about the “% protection” value ([3]; 10 mg/kg i.p.) of the same compound?
Answer: Its value is 46.2%.

Question: What about the “% protection” value ([3]; 10 mg/kg per os) of the same compound?
Answer: The value was 40.6%.

Question: And the “% protection” value ([3]; 20 mg/kg i.p.)?
Answer: Its value is 69.1%.

Question: And the “% protection” value ([3]; 20 mg/kg per os)?
Answer: Its value is 62.0%.

Question: And the mean severity ([4]; 50 mg/kg orally, four days)?
Answer: Its mean severity is 2.

Question: What about the “mean No. of lesions” value ([4]; 100 mg/kg orally, four days) of the same compound?
Answer: Its value is 2.5.

Question: What about the mean severity ([4]; 100 mg/kg orally, four days) of the same compound?
Answer: Its mean severity is 3.5.

Question: And the “mean No. of lesions” value ([4]; 200 mg/kg orally, four days)?
Answer: The value was 3.

Question: And the mean severity ([4]; 200 mg/kg orally, four days)?
Answer: Its mean severity is 4.

Question: What about the “mean No. of lesions” value ([4]; rat, in vivo) of the same compound?
Answer: The value was 2.

Question: And the “% inhibition, amplitude of coughs” value ([5]; 50 mg/kg i.p.)?
Answer: Its value is 0%.

Question: And the “% inhibition, frequency of coughs” value ([5]; 50 mg/kg i.p.)?
Answer: The value was 0%.

Question: What about the “% inhibition, amplitude of coughs” value ([5]; 50 mg/kg per os) of the same compound?
Answer: The value was 0%.

Question: What about the “% inhibition, frequency of coughs” value ([5]; 50 mg/kg per os) of the same compound?
Answer: Its value is 0%.

Question: What about the “% inhibition, amplitude of coughs” value ([5]; 75 mg/kg i.p.) of the same compound?
Answer: Its value is 0%.

Question: What about the “% inhibition, frequency of coughs” value ([5]; 75 mg/kg i.p.) of the same compound?
Answer: The value was 10%.

Question: What about the “% inhibition, amplitude of coughs” value ([5]; 75 mg/kg per os) of the same compound?
Answer: The value was 7%.

Question: What about the “% inhibition, frequency of coughs” value ([5]; 75 mg/kg per os) of the same compound?
Answer: The value was 0%.

Question: What about the “% inhibition, amplitude of coughs” value ([5]; 100 mg/kg i.p.) of the same compound?
Answer: Its value is 7%.

Question: What about the “% inhibition, frequency of coughs” value ([5]; 100 mg/kg i.p.) of the same compound?
Answer: Its value is 10%.

Question: And the “% inhibition, amplitude of coughs” value ([5]; 100 mg/kg per os)?
Answer: The value was 5%.

Question: What about the “% inhibition, frequency of coughs” value ([5]; 100 mg/kg per os) of the same compound?
Answer: Its value is 5%.

Question: And the Oedema % inhibition ([2]; 25 mg/kg i.p., 2 h)?
Answer: Its Oedema % inhibition is 28.0%.

Question: And the Oedema % inhibition ([2]; 25 mg/kg i.p., 4 h)?
Answer: The Oedema % inhibition was 29.1%.

Question: And the Oedema % inhibition ([2]; 25 mg/kg i.p., 6 h)?
Answer: Its Oedema % inhibition is 32.1%.

Question: What about the Oedema % inhibition ([2]; 25 mg/kg i.p., 24 h) of the same compound?
Answer: Its Oedema % inhibition is 8.9%.

Question: And the Oedema % inhibition ([2]; 25 mg/kg per os, 2 h)?
Answer: Its Oedema % inhibition is 24.6%.

Question: What about the Oedema % inhibition ([2]; 25 mg/kg per os, 4 h) of the same compound?
Answer: The Oedema % inhibition was 26.2%.

Question: And the Oedema % inhibition ([2]; 25 mg/kg per os, 6 h)?
Answer: Its Oedema % inhibition is 30.1%.

Question: What about the Oedema % inhibition ([2]; 25 mg/kg per os, 24 h) of the same compound?
Answer: The Oedema % inhibition was 6.2%.

Question: What about the Oedema % inhibition ([2]; 50 mg/kg i.p., 2 h) of the same compound?
Answer: The Oedema % inhibition was 47.0%.

Question: What about the Oedema % inhibition ([2]; 50 mg/kg i.p., 4 h) of the same compound?
Answer: The Oedema % inhibition was 49.1%.

Question: What about the Oedema % inhibition ([2]; 50 mg/kg i.p., 6 h) of the same compound?
Answer: Its Oedema % inhibition is 40.0%.

Question: What about the Oedema % inhibition ([2]; 50 mg/kg i.p., 24 h) of the same compound?
Answer: Its Oedema % inhibition is 7.1%.

Question: What about the Oedema % inhibition ([2]; 50 mg/kg per os, 2 h) of the same compound?
Answer: The Oedema % inhibition was 43.1%.

Question: And the Oedema % inhibition ([2]; 50 mg/kg per os, 4 h)?
Answer: The Oedema % inhibition was 46.0%.

Question: What about the Oedema % inhibition ([2]; 50 mg/kg per os, 6 h) of the same compound?
Answer: Its Oedema % inhibition is 41.3%.

Question: What about the Oedema % inhibition ([2]; 50 mg/kg per os, 24 h) of the same compound?
Answer: The Oedema % inhibition was 9.1%.

Question: What about the Oedema % inhibition ([2]; 100 mg/kg i.p., 2 h) of the same compound?
Answer: Its Oedema % inhibition is 64.1%.

Question: What about the Oedema % inhibition ([2]; 100 mg/kg i.p., 4 h) of the same compound?
Answer: The Oedema % inhibition was 65.8%.

Question: What about the Oedema % inhibition ([2]; 100 mg/kg i.p., 6 h) of the same compound?
Answer: Its Oedema % inhibition is 60.2%.

Question: What about the Oedema % inhibition ([2]; 100 mg/kg i.p., 24 h) of the same compound?
Answer: Its Oedema % inhibition is 11.2%.

Question: And the Oedema % inhibition ([2]; 100 mg/kg per os, 2 h)?
Answer: Its Oedema % inhibition is 60.8%.

Question: What about the Oedema % inhibition ([2]; 100 mg/kg per os, 4 h) of the same compound?
Answer: The Oedema % inhibition was 60.0%.

Question: What about the Oedema % inhibition ([2]; 100 mg/kg per os, 6 h) of the same compound?
Answer: Its Oedema % inhibition is 64.5%.

Question: What about the Oedema % inhibition ([2]; 100 mg/kg per os, 24 h) of the same compound?
Answer: The Oedema % inhibition was 14.6%.

Question: For `CC(=O)N[C@@H](CS)C(=O)O` [acetylcysteine], which “% decrease of expectoration consistency” value ([1]; […] (20.0%)) is on record?
Answer: Its value is 81%.
